Measured values from patent publication US20060069132A1, “Azolecarboxamide herbicides” (priority 2004, published 2006).

What was measured:
[1] = tested on: green foxtail; test: Test E pre-/postemergence herbicide test; type: in vivo, Setaria viridis
From the text: (§1) Seeds of plant species selected from bipinnate beggarticks (Bidens bipinnata L.), hairy beggarticks (Bidens radiata Thuill.), bermudagrass (Cynodon dactylon (L.) Pers.), Surinam grass (Urochloa decumbens (Staph) R. D. Webster, previously named Brachiaria decumbens Stapf), large crabgrass (Digitaria sanguinalis (L.) Scop.), green foxtail (Setaria viridis (L.) P. Beauv.), goosegrass (Eleusine indica (L.) Gaertn.), johnsongrass (Sorghum halepense (L.) Pers.), kochia (Kochia scoparia (L.) Schrad.), pitted morningglory (Ipomoea lacunosa L.), purple nutsedge (Cyperus rotundus L.), common ragweed (Ambrosia elatior L.), mustard (Brassica nigra (L.) W. D. J. Koch), guineagrass (Panicum maximum Jacq.), dallisgrass (Paspalum dilatatum Poir.), barnyardgrass (Echinochloa crus-galli (L). P. Beauv.), southern sandbur (Cenchrus echinatus L.), common sowthistle (Sonchus oleraceous L.), prickly sida (Sida spinosa L.), Italian ryegrass (Lolium multiflorum Lam.), common purslane (Portulaca oleracea L.), broadleaf signalgrass (Brachiaria platyphylla (Griseb.) Nash), common groundsel (Senecio vulgaris L.), common chickweed (Stellaria media (L.) Vill/Cyr.), tropical spiderwort (Commelina benghalensis L.), annual bluegrass (Poa annua L.), downy bromegrass (Bromus tectorum L.), itchgrass (Rottboellia cochinchinensis (L.) L.f.), quackgrass (Elytrigia repens (L.) Nevski), Canada horseweed (Erigeron Canadensis L.), field bindweed (Convolvulus arvensis L.), spotted spurge (Euphorbia maculata L.), common mallow (Malva sylvestris (=s silvestris) L.), and Russian thistle (Salsola kali L. ssp. Ruthenica (Iljin) Soo) were planted and treated preemergence with test chemicals formulated in a non-phytotoxic solvent mixture which included a surfactant.
(§2) At the same time, plants selected from these weed species were treated with postemergence applications of some of the test chemicals formulated in the same manner. Plants ranged in height from 2 to 18 cm (1- to 4-leaf stage) for postemergence treatments. Treated plants and controls were maintained in a greenhouse for 12 to 14 days, after which time all species were compared to controls and visually evaluated. Plant response ratings, summarized in Table E, are based on a scale of 0 to 100 where 0 is no effect and 100 is complete control. A dash (-) response means no test result.

[2] = tested on: bermudagrass; test: Test E pre-/postemergence herbicide test; type: in vivo, Cynodon dactylon
From the text: as §1, §2

[3] = tested on: field bindweed; test: Test E pre-/postemergence herbicide test; type: in vivo, Convolvulus arvensis
From the text: as §1, §2

[4] = tested on: johnsongrass; test: Test E pre-/postemergence herbicide test; type: in vivo, Sorghum halepense
From the text: as §1, §2

[5] = tested on: purple nutsedge; test: Test E pre-/postemergence herbicide test; type: in vivo, Cyperus rotundus; details: Preemergence; 500 g ai/ha; scale 0 (no effect) to 100 (complete control)
From the text: as §1, §2

[6] = tested on: southern sandbur; test: Test E pre-/postemergence herbicide test; type: in vivo, Cenchrus echinatus
From the text: as §1, §2

[7] = tested on: goosegrass; test: Test E pre-/postemergence herbicide test; type: in vivo, Eleusine indica
From the text: as §1, §2

[8] = tested on: common sowthistle; test: Test E pre-/postemergence herbicide test; type: in vivo, Sonchus oleraceous
From the text: as §1, §2

[9] = tested on: quackgrass; test: Test E pre-/postemergence herbicide test; type: in vivo, Elytrigia repens
From the text: as §1, §2

[10] = tested on: Russian thistle; test: Test E pre-/postemergence herbicide test; type: in vivo, Salsola kali; details: Preemergence
From the text: as §1, §2

[11] = tested on: green foxtail; test: Test C postemergence herbicide test; type: in vivo, Setaria viridis
Protocol: (§3) At the same time, plants selected from these crop and weed species and also winter barley (Hordeum vulgare L.), blackgrass (Alopecurus myosuroides Huds.), canarygrass (Phalaris minor Retz.), chickweed (Stellaria media (L.) Vill.), downy bromegrass (Bromus tectorum L.), green foxtail (Setaria viridis (L.) Beauv.), Italian ryegrass (Lolium multiflorum Lam.), wheat (Triticum aestivum L.), wild oat (Avenafatua L.) and windgrass (Apera spica-venti (L.) Beauv.) were treated with postemergence applications of some of the test chemicals formulated in the same manner. Plants ranged in height from 2 to 18 cm (1- to 4-leaf stage) for postemergence treatments. Plant species in the flooded paddy test consisted of rice (Oryza sativa), smallflower umbrella sedge (Cyperus difformis L.), ducksalad (Heteranthera limosa (Sw.) Willd.) and barnyardgrass (Echinochloa crus-galli (L.) Beauv.) grown to the 2-leaf stage for testing. Treated plants and controls were maintained in a greenhouse for 12 to 14 days, after which time all species were compared to controls and visually evaluated. Plant response ratings, summarized in Table C, are based on a scale of 0 to 100 where 0 is no effect and 100 is complete control. A dash (-) response means no test result.

[12] = tested on: wheat; test: Test C postemergence herbicide test; type: in vivo, Triticum aestivum
Protocol: as §3

[13] = Postemergence, 250 g ai/ha, scale 0 to 100
[14] = Preemergence, 62 g ai/ha, scale 0 to 100
[15] = Preemergence, 125 g ai/ha, scale 0 (no effect) to 100 (complete control)
[16] = Preemergence, 250 g ai/ha, scale 0 (no effect) to 100 (complete control)
[17] = Preemergence, 500 g ai/ha, scale 0 (no effect) to 100 (complete control)
[18] = postemergence, 125 g ai/ha, scale 0 to 100
[19] = postemergence, 62 g ai/ha, scale 0 to 100
[20] = Postemergence, 500 g ai/ha, scale 0 to 100
[21] = Postemergence, 250 g ai/ha, scale 0 to 100, 0 no effect, 100 complete control
[22] = Postemergence, 500 g ai/ha, scale 0 to 100, 0 no effect, 100 complete control

CCNC(=O)c1ccc(F)c(NC(=O)c2cc(C(C)(C)C)nn2CC)c1 [Compound 2, 3-(1,1-dimethylethyl)-1-ethyl-N-[5-[(ethylamino)carbonyl]-2-fluorophenyl]-1H-pyrazole-5-carboxamide]
Plant response rating, Foxtail, Green [1, 13]: 95
Plant response rating, Foxtail, Green [1, 14]: 40
Plant response rating, Foxtail, Green [1, 15]: 80
Plant response rating, Foxtail, Green [1, 16]: 100
Plant response rating, Foxtail, Green [1, 17]: 100
Plant response rating, Foxtail, Green [1, 18]: 90
Plant response rating, Foxtail, Green [1, 19]: 60
Plant response rating, Bermudagrass [2, 13]: 90
Plant response rating, Bermudagrass [2, 14]: 90
Plant response rating, Bermudagrass [2, 15]: 95
Plant response rating, Bermudagrass [2, 16]: 100
Plant response rating, Bermudagrass [2, 17]: 100
Plant response rating, Bermudagrass [2, 18]: 85
Plant response rating, Bermudagrass [2, 19]: 20
Plant response rating, Bindweed, Field [3, 13]: 70
Plant response rating, Bindweed, Field [3, 14]: 10
Plant response rating, Bindweed, Field [3, 16]: 70
Plant response rating, Bindweed, Field [3, 17]: 80
Plant response rating, Bindweed, Field [3, 18]: 70
Plant response rating, Bindweed, Field [3, 19]: 50
Plant response rating, Johnsongrass [4, 13]: 100
Plant response rating, Johnsongrass [4, 14]: 90
Plant response rating, Johnsongrass [4, 15]: 90
Plant response rating, Johnsongrass [4, 16]: 100
Plant response rating, Johnsongrass [4, 17]: 100
Plant response rating, Johnsongrass [4, 18]: 90
Plant response rating, Johnsongrass [4, 19]: 80
Plant response rating, Nutsedge, Purple [5]: 95
Plant response rating, Sandbur [6, 13]: 95
Plant response rating, Sandbur [6, 14]: 60
Plant response rating, Sandbur [6, 15]: 70
Plant response rating, Sandbur [6, 16]: 80
Plant response rating, Sandbur [6, 17]: 100
Plant response rating, Sandbur [6, 18]: 75
Plant response rating, Sandbur [6, 19]: 65
Plant response rating, Goosegrass [7, 13]: 98
Plant response rating, Goosegrass [7, 14]: 80
Plant response rating, Goosegrass [7, 15]: 90
Plant response rating, Goosegrass [7, 16]: 95
Plant response rating, Goosegrass [7, 17]: 95
Plant response rating, Goosegrass [7, 18]: 95
Plant response rating, Goosegrass [7, 19]: 95
Plant response rating, Sowthistle [8, 13]: 95
Plant response rating, Sowthistle [8, 14]: 90
Plant response rating, Sowthistle [8, 15]: 95
Plant response rating, Sowthistle [8, 16]: 95
Plant response rating, Sowthistle [8, 17]: 95
Plant response rating, Sowthistle [8, 18]: 90
Plant response rating, Sowthistle [8, 19]: 90
Plant response rating, Quackgrass [9, 13]: 95
Plant response rating, Quackgrass [9, 14]: 30
Plant response rating, Quackgrass [9, 15]: 60
Plant response rating, Quackgrass [9, 16]: 70
Plant response rating, Quackgrass [9, 17]: 80
Plant response rating, Quackgrass [9, 18]: 90
Plant response rating, Quackgrass [9, 19]: 70
Plant response rating, Thistle ([10]; 62 g ai/ha, scale 0 to 100): 50
Plant response rating, Thistle ([10]; 125 g ai/ha, scale 0 to 100): 60
Plant response rating, Thistle ([10]; 250 g ai/ha, scale 0 (no effect) to 100 (complete control)): 60
Plant response rating, Thistle ([10]; 500 g ai/ha, scale 0 (no effect) to 100 (complete control)): 80

CCn1nc(C(C)(C)C)cc1C(=O)Nc1cccc(OC(F)F)c1 [Compound 332]
Foxtail, Green plant response rating [11, 20]: 70
Plant response rating, Foxtail, Green [11, 21]: 50
Plant response rating, Foxtail, Green [11, 18]: 40
Plant response rating, Foxtail, Green [11, 19]: 35
Wheat plant response rating [12, 20]: 35
Plant response rating, Wheat [12, 21]: 35
Plant response rating, Wheat [12, 18]: 30
Plant response rating, Wheat [12, 19]: 30

CCn1nc(C(C)(C)C)cc1C(=O)Nc1cc(C(=S)N(C)C)ccn1 [Compound 334]
Plant response rating, Foxtail, Green [11, 21]: 45
Plant response rating, Foxtail, Green [11, 18]: 35
Plant response rating, Foxtail, Green [11, 19]: 35
Plant response rating, Wheat [12, 21]: 75
Plant response rating, Wheat [12, 18]: 75
Plant response rating, Wheat [12, 19]: 65

CCNC(=O)c1ccc(F)c(NC(=O)c2c3c(nn2CC)C(C)(C)CC3)c1 [Compound 353]
Plant response rating, Foxtail, Green [11, 21]: 20
Plant response rating, Foxtail, Green [11, 22]: 30
Plant response rating, Foxtail, Green [11, 18]: 20
Plant response rating, Foxtail, Green [11, 19]: 15
Plant response rating, Wheat [12, 21]: 30
Plant response rating, Wheat [12, 22]: 35
Plant response rating, Wheat [12, 18]: 15
Plant response rating, Wheat [12, 19]: 10

CCOC(=O)c1cccc(NC(=O)c2nn(C(C)(C)CC)nc2CC)c1 [Compound 375]
Plant response rating, Foxtail, Green [11, 21]: 65
Plant response rating, Foxtail, Green [11, 18]: 65
Plant response rating, Foxtail, Green [11, 19]: 50
Plant response rating, Wheat [12, 18]: 30
Plant response rating, Wheat [12, 19]: 25

C=CCNC(=O)c1cccc(NC(=O)c2nn(C(C)(C)C)nc2CC)c1 [Compound 414]
Plant response rating, Foxtail, Green [11, 21]: 65
Plant response rating, Foxtail, Green [11, 22]: 65
Plant response rating, Foxtail, Green [11, 18]: 60
Plant response rating, Foxtail, Green [11, 19]: 60
Plant response rating, Wheat [12, 22]: 30
Plant response rating, Wheat [12, 18]: 10
Plant response rating, Wheat [12, 19]: 10
